Measured values taken from ChEMBL document CHEMBL3272108, “Analogues of sparteine. 5. Antiarrhythmic activity of selected N,N'-disubstituted bispidines” (J Med Chem, 1977).
Active and inactive are the calls of the source. The calls are words filed in the database; no cut-off is given here.

What was measured:
Mus musculus = test: Antiarrhythmic activity in ip dosed CF1 mouse by chloroform-fibrillation assay based ECG analysis; format: functional; details: CF1, Heart
[1] = Therapeutic index, ratio of LD50 for CF1 mouse to ED50 for antiarrhythmic activity in CF1 mouse; details: in vivo
[2] = Acute toxicity in ip dosed CF1 mouse; details: in vivo
[3] = Octanol-phosphate buffer apparent partition coefficient, log D of the compound at pH 7.4 by GLC analysis; format: physicochemical
[4] = Binding affinity to calcium nitrate in anhydrous dimethyl-d6-sulfoxide solvent by proton magnetic resonance analysis
[5] = Binding affinity to magnesium nitrate in anhydrous dimethyl-d6-sulfoxide solvent by proton magnetic resonance analysis
[6] = Binding affinity to magnesium salt in methanol-d4 solvent by proton magnetic resonance analysis
[7] = Binding affinity to calcium salt in methanol-d4 solvent by proton magnetic resonance analysis

| Structure (SMILES) | ED50 (Mus musculus) | selectivity ratio [1] | LD50 [2] | logD [3] | Activity [4] | Activity [5] | Activity [6] | Activity [7] |
| --- | --- | --- | --- | --- | --- | --- | --- | --- |
| CN1CC2CC(C1)CN(C(c1ccccc1)c1ccccc1)C2.Cl | 259 µmol/kg | 0.87 | 225 µmol/kg | -0.43 |  |  |  |  |
| CCCCN1CC2CC(C1)CN(CCCC)C2.Cl | 170 µmol/kg | 1.23 | 196 µmol/kg | -2.07 |  |  |  |  |
| CCCCN1CC2CC(C1)CN(Cc1ccccc1)C2.Cl | 159 µmol/kg | 1.25 | 198 µmol/kg | -1.22 | inactive | inactive |  |  |
| CC(C)C1C2CC(CN(C)C2)CN1C.Cl (stereo not given) | 191 µmol/kg | 1.46 | 279 µmol/kg | -3.4 |  |  |  |  |
| CC(C)N(CCC(C(N)=O)(c1ccccc1)c1ccccn1)C(C)C (stereo not given) [DISOPYRAMIDE] | 60 µmol/kg | 8.4 | 504 µmol/kg |  |  |  |  |  |
| Cl.c1ccc(CN2CC3CC(C2)CN(Cc2ccccc2)C3)cc1 | 160 µmol/kg | 1.24 | 199 µmol/kg | -0.43 | inactive | inactive |  |  |
| CN1CC2CC(C1)CN(Cc1ccccc1)C2.CS(=O)(=O)O | 154 µmol/kg | 1.23 | 189 µmol/kg | -2.57 |  |  | Active | Active |
| C1CCN2C[C@@H]3C[C@@H](CN4CCCC[C@@H]34)[C@H]2C1.O.O.O.O.O.O=S(=O)(O)O [SPARTEINE SULFATE] | 150 µmol/kg | 0.89 | 134 µmol/kg | -1.57 | inactive | inactive | Active | Active |
| Br.CCCCN1CC2CC(CN(C)C2)C1 | 192 µmol/kg | 1.08 | 207 µmol/kg | -3.39 |  |  |  |  |
